Measurements published in ChEMBL document CHEMBL1201862, “PubChem BioAssay data set” (2004).
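Where inhibition never reached the appropriate level, the endpoint shown equals the highest concentration tested. Otherwise, values were interpolated linearly from a five-concentration, 48-hour dose response in 96-well plates. GI50 is the concentration that inhibits growth by half.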 Active and inactive are the calls of the source. Cut-off read from the data, not from the text of the source: active = GI50 up to about 1.1 µM and inactive = higher. Where a SMILES comes first, the peptide text is derived from it. The star is where a group is joined. Boc = CC(C)(C)OC(=O)*

How the values were obtained:
Experiment in all cases: NCI-60 cell line screen, 48 h
[1] = system: SR
[2] = system: MCF7
[3] = system: RPMI-8226
[4] = system: HL-60
[5] = system: KM12
[6] = system: MDA-N
[7] = system: PC-3
[8] = system: K562
[9] = system: CAKI-1
[10] = system: M14
[11] = system: HOP-92
[12] = system: DU-145
[13] = system: MDA-MB-435
[14] = system: LOX IMVI
[15] = system: HOP-62
[16] = system: SF-268
[17] = system: HCT-116
[18] = system: SNB-75
[19] = system: NCI/ADR-RES
[20] = system: UACC-62
[21] = system: OVCAR-5
[22] = system: HT-29
[23] = system: 786-0
[24] = system: SF-539
[25] = system: BT-549
[26] = system: OVCAR-8
[27] = system: NCI-H23
[28] = system: MDA-MB-231
[29] = system: Hs-578T
[30] = system: A549
[31] = system: TK-10
[32] = system: EKVX
[33] = system: UO-31
[34] = system: SK-MEL-5
[35] = system: U-251
[36] = system: HCC 2998
[37] = system: UACC-257
[38] = system: SF-295
[39] = system: SK-MEL-2
[40] = system: T47D
[41] = system: SNB-19
[42] = system: COLO 205
[43] = system: A498
[44] = system: SN12C
[45] = system: SK-MEL-28
[46] = system: OVCAR-4
[47] = system: NCI-H522
[48] = system: OVCAR-3
[49] = system: IGROV-1
[50] = system: MOLT-4
[51] = system: ACHN
[52] = system: CCRF-CEM
[53] = system: SW-620
[54] = system: NCI-H460
[55] = system: HCT-15
[56] = system: Malme-3M
[57] = system: SK-OV-3
[58] = system: NCI-H226

CC1NC(=O)C2Cc3ccc(O)c(c3)Oc3ccc(cc3)C(O)C(C(=O)N2C)N(C)C(=O)C(C)NC(=O)C(Cc2ccc(O)cc2)N(C)C(=O)C(C)NC1=O (stereo unspecified)
GI50 [1]: 10.7 µM (inactive)
GI50 [2]: 13.7 µM (inactive)
GI50 [3]: 12 µM (inactive)
GI50 [4]: 13.9 µM (inactive)
GI50 [5]: 9.68 µM (inactive)
GI50 [6]: 13.1 µM (inactive)
GI50 [7]: 23.8 µM (inactive)
GI50 [8]: > 100 µM (inactive)
GI50 [9]: > 100 µM (inactive)
GI50 [10]: 63.2 µM (inactive)
GI50 [11]: 15.8 µM (inactive)
GI50 [12]: 32.4 µM (inactive)
GI50 [13]: 18.8 µM (inactive)
GI50 [14]: 5.43 µM (inactive)
GI50 [15]: 34.7 µM (inactive)
GI50 [16]: 4.03 µM (inactive)
GI50 [17]: 9.64 µM (inactive)
GI50 [18]: 3.67 µM (inactive)
GI50 [19]: > 100 µM (inactive)
GI50 [20]: 19.5 µM (inactive)
GI50 [21]: 42.6 µM (inactive)
GI50 [22]: 19.2 µM (inactive)
GI50 [23]: 38 µM (inactive)
GI50 [24]: 6.71 µM (inactive)
GI50 [25]: 24.6 µM (inactive)
GI50 [26]: 24.7 µM (inactive)
GI50 [27]: 29.2 µM (inactive)
GI50 [28]: 11.1 µM (inactive)
GI50 [29]: 5.09 µM (inactive)
GI50 [30]: 41 µM (inactive)
GI50 [31]: > 100 µM (inactive)
GI50 [32]: 57 µM (inactive)
GI50 [33]: > 100 µM (inactive)
GI50 [34]: 31.6 µM (inactive)
GI50 [35]: 9.48 µM (inactive)
GI50 [36]: 22.2 µM (inactive)
GI50 [37]: 13.6 µM (inactive)
GI50 [38]: > 100 µM (inactive)
GI50 [39]: 8.41 µM (inactive)
GI50 [40]: 15.9 µM (inactive)
GI50 [41]: 13.8 µM (inactive)
GI50 [42]: 79.6 µM (inactive)
GI50 [43]: > 100 µM (inactive)
GI50 [44]: > 10 µM (inactive)
GI50 [45]: 19.2 µM (inactive)
GI50 [46]: 35.1 µM (inactive)
GI50 [47]: 9.44 µM (inactive)
GI50 [48]: 25.3 µM (inactive)
GI50 [49]: 4.85 µM (inactive)
GI50 [50]: 19.4 µM (inactive)
GI50 [51]: > 100 µM (inactive)
GI50 [52]: 9.71 µM (inactive)
GI50 [53]: 23.4 µM (inactive)
GI50 [54]: 31.3 µM (inactive)
GI50 [55]: > 100 µM

O=C(O)Cc1cccc2c(=O)c3ccccc3oc12
GI50 [1]: > 100 µM (inactive)
GI50 [2]: > 100 µM (inactive)
GI50 [56]: > 100 µM (inactive)
GI50 [3]: > 100 µM (inactive)
GI50 [4]: > 100 µM (inactive)
GI50 [5]: > 100 µM (inactive)
GI50 [6]: > 100 µM (inactive)
GI50 [7]: > 100 µM (inactive)
GI50 [8]: > 100 µM (inactive)
GI50 [9]: > 100 µM (inactive)
GI50 [10]: > 100 µM (inactive)
GI50 [11]: > 100 µM (inactive)
GI50 [12]: > 100 µM (inactive)
GI50 [13]: > 100 µM (inactive)
GI50 [14]: > 100 µM (inactive)
GI50 [15]: > 100 µM (inactive)
GI50 [16]: > 100 µM (inactive)
GI50 [17]: > 100 µM (inactive)
GI50 [19]: > 100 µM (inactive)
GI50 [20]: 24.3 µM (inactive)
GI50 [22]: > 100 µM (inactive)
GI50 [23]: > 100 µM (inactive)
GI50 [24]: > 100 µM (inactive)
GI50 [25]: > 100 µM (inactive)
GI50 [26]: > 100 µM (inactive)
GI50 [27]: > 100 µM (inactive)
GI50 [28]: > 100 µM (inactive)
GI50 [29]: > 100 µM (inactive)
GI50 [30]: > 100 µM (inactive)
GI50 [31]: > 100 µM (inactive)
GI50 [32]: > 100 µM (inactive)
GI50 [33]: > 100 µM (inactive)
GI50 [34]: > 100 µM (inactive)
GI50 [35]: > 100 µM (inactive)
GI50 [57]: 17.7 µM (inactive)
GI50 [36]: 22 µM (inactive)
GI50 [37]: > 100 µM (inactive)
GI50 [38]: > 100 µM (inactive)
GI50 [39]: 27.3 µM (inactive)
GI50 [40]: 19.1 µM (inactive)
GI50 [41]: > 100 µM (inactive)
GI50 [42]: > 100 µM (inactive)
GI50 [43]: > 100 µM (inactive)
GI50 [44]: > 100 µM (inactive)
GI50 [45]: > 100 µM (inactive)
GI50 [46]: > 100 µM (inactive)
GI50 [58]: > 100 µM (inactive)
GI50 [47]: 48.5 µM (inactive)
GI50 [48]: > 100 µM (inactive)
GI50 [49]: > 100 µM (inactive)
GI50 [50]: > 100 µM (inactive)
GI50 [51]: > 100 µM (inactive)
GI50 [52]: > 100 µM (inactive)
GI50 [53]: > 100 µM (inactive)
GI50 [54]: > 100 µM (inactive)
GI50 [55]: 21.1 µM

COC1CC(OC2C(C)OC(OC3C(C)OC(OC4C(C)OC(O[C@H]5CC[C@@]6(C)C(=CC[C@]7(O)[C@@H]6C[C@@H](OC(=O)/C=C(\C)C(C)C)[C@@]6(C)[C@]7(O)CC[C@@]6(O)C(C)=O)C5)CC4OC)CC3OC)CC2OC)OC(C)C1O (stereo partly specified)
GI50 [1]: > 12.5 µM (inactive)
GI50 [2]: > 12.5 µM (inactive)
GI50 [56]: > 12.5 µM (inactive)
GI50 [3]: 4.02 µM (inactive)
GI50 [4]: 5.11 µM (inactive)
GI50 [5]: > 12.5 µM (inactive)
GI50 [6]: > 12.5 µM (inactive)
GI50 [7]: > 12.5 µM (inactive)
GI50 [8]: 10.9 µM (inactive)
GI50 [9]: > 12.5 µM (inactive)
GI50 [10]: > 12.5 µM (inactive)
GI50 [11]: > 12.5 µM (inactive)
GI50 [12]: > 12.5 µM (inactive)
GI50 [13]: > 12.5 µM (inactive)
GI50 [14]: > 12.5 µM (inactive)
GI50 [15]: > 12.5 µM (inactive)
GI50 [16]: > 12.5 µM (inactive)
GI50 [17]: > 12.5 µM (inactive)
GI50 [18]: > 12.5 µM (inactive)
GI50 [19]: > 12.5 µM (inactive)
GI50 [20]: > 12.5 µM (inactive)
GI50 [21]: > 12.5 µM (inactive)
GI50 [22]: > 12.5 µM (inactive)
GI50 [23]: > 12.5 µM (inactive)
GI50 [24]: > 12.5 µM (inactive)
GI50 [25]: > 12.5 µM (inactive)
GI50 [26]: > 12.5 µM (inactive)
GI50 [27]: > 12.5 µM (inactive)
GI50 [28]: 11.9 µM (inactive)
GI50 [29]: > 12.5 µM (inactive)
GI50 [30]: > 12.5 µM (inactive)
GI50 [31]: > 12.5 µM (inactive)
GI50 [32]: > 12.5 µM (inactive)
GI50 [33]: 4.85 µM (inactive)
GI50 [34]: 11.2 µM (inactive)
GI50 [35]: > 12.5 µM (inactive)
GI50 [57]: > 12.5 µM (inactive)
GI50 [36]: > 12.5 µM (inactive)
GI50 [37]: > 12.5 µM (inactive)
GI50 [38]: > 12.5 µM (inactive)
GI50 [39]: > 12.5 µM (inactive)
GI50 [40]: > 12.5 µM (inactive)
GI50 [41]: > 12.5 µM (inactive)
GI50 [42]: > 12.5 µM (inactive)
GI50 [44]: > 12.5 µM (inactive)
GI50 [46]: > 12.5 µM (inactive)
GI50 [58]: > 12.5 µM (inactive)
GI50 [47]: > 12.5 µM (inactive)
GI50 [48]: > 12.5 µM (inactive)
GI50 [49]: > 12.5 µM (inactive)
GI50 [50]: > 12.5 µM (inactive)
GI50 [51]: > 12.5 µM (inactive)
GI50 [52]: > 12.5 µM (inactive)
GI50 [53]: > 12.5 µM (inactive)
GI50 [55]: > 12.5 µM

COC(=O)C(C)NC(=O)C(CCSC)NC(=O)C(Cc1ccccc1)NC(=O)OC(C)(C)C (stereo not drawn) (Boc-Phe-Met-Ala-OMe; configuration not given here)
GI50 [1]: > 100 µM (inactive)
GI50 [2]: > 100 µM (inactive)
GI50 [56]: > 100 µM (inactive)
GI50 [3]: > 100 µM (inactive)
GI50 [4]: 63.2 µM (inactive)
GI50 [5]: > 100 µM (inactive)
GI50 [6]: > 100 µM (inactive)
GI50 [7]: > 100 µM (inactive)
GI50 [9]: > 100 µM (inactive)
GI50 [10]: > 100 µM (inactive)
GI50 [11]: > 100 µM (inactive)
GI50 [12]: > 100 µM (inactive)
GI50 [13]: > 100 µM (inactive)
GI50 [14]: > 100 µM (inactive)
GI50 [15]: > 100 µM (inactive)
GI50 [16]: > 100 µM (inactive)
GI50 [17]: > 100 µM (inactive)
GI50 [18]: > 100 µM (inactive)
GI50 [19]: > 100 µM (inactive)
GI50 [20]: > 100 µM (inactive)
GI50 [21]: > 100 µM (inactive)
GI50 [22]: > 100 µM (inactive)
GI50 [23]: > 100 µM (inactive)
GI50 [24]: > 100 µM (inactive)
GI50 [25]: > 100 µM (inactive)
GI50 [26]: > 100 µM (inactive)
GI50 [27]: > 100 µM (inactive)
GI50 [28]: > 100 µM (inactive)
GI50 [29]: > 100 µM (inactive)
GI50 [30]: > 100 µM (inactive)
GI50 [31]: > 100 µM (inactive)
GI50 [33]: > 100 µM (inactive)
GI50 [34]: > 100 µM (inactive)
GI50 [35]: > 100 µM (inactive)
GI50 [57]: > 100 µM (inactive)
GI50 [36]: > 100 µM (inactive)
GI50 [37]: > 100 µM (inactive)
GI50 [38]: > 100 µM (inactive)
GI50 [39]: > 100 µM (inactive)
GI50 [40]: > 100 µM (inactive)
GI50 [41]: > 100 µM (inactive)
GI50 [42]: > 100 µM (inactive)
GI50 [44]: > 100 µM (inactive)
GI50 [45]: > 100 µM (inactive)
GI50 [46]: > 100 µM (inactive)
GI50 [58]: > 100 µM (inactive)
GI50 [47]: > 100 µM (inactive)
GI50 [48]: > 100 µM (inactive)
GI50 [49]: > 100 µM (inactive)
GI50 [50]: > 100 µM (inactive)
GI50 [51]: > 100 µM (inactive)
GI50 [52]: > 100 µM (inactive)
GI50 [53]: > 100 µM (inactive)
GI50 [54]: > 100 µM (inactive)
GI50 [55]: > 100 µM
